Patent US12630544B2, “Compound, α-synuclein aggregate binder, and use thereof” (NATIONAL INSTITUTES FOR QUANTUM SCIENCE AND TECHNOLOGY, priority 2020, dated 2026)

How the values were obtained:
[1] = system: tau aggregates or amyloid-β aggregates; assay: In vitro fluorescence microscope measurement, middle frontal gyrus sections of AD patient brain; parameters: species or system human; conditions: 30 μM compound
Description: (§1) Postmortem human brains were obtained in autopsies carried out with respect to a patient with dementia with Lewy bodies (DLB) and a patient with Alzheimer's disease (AD). In a cryostat (HM560, Carl Zeiss), frozen tissue from the DLB patient was sliced into sections each having a thickness of 20 μm. Brain tissue from the AD patient was fixed in 10% neutral buffered formalin, embedded in a paraffin block, and sliced into sections each having a thickness of 6 μm.
Postfixed fresh frozen sections of amygdala tissue obtained from the brain of the DLB patient and deparaffinized sections of formalin-fixed paraffin-embedded middle frontal gyrus tissue obtained from the brain of the AD patient were used. […] After the section was mounted in a mounting medium (VECTASHIELD H-1000, Vector Laboratories), an image of a lesion-enriched area on the section was obtained with use of a fluorescence microscope (DM4000, Leica, excitation wavelength: 391 nm to 437 nm). In FIG. 1, each arrowhead indicates fluorescence from the compound binding to α-synuclein aggregates in the brain of the DLB patient, each arrow indicates fluorescence from the compound binding to amyloid-β aggregates in the brain of the AD patient, and an asterisk indicates fluorescence from the compound binding to tau aggregates in the brain of the AD patient. […]

α-synuclein lesion = target: T1, α-synuclein lesion (Mus musculus, UniProt O55042); assay: In vivo two-photon laser scanning fluorescence microscopy of α-synuclein fibril-inoculated model mouse; conditions: 50 μl DMSO solution containing 0.1% compound, i.p.; excitation 900 nm
T1 construct: from tissue; host or cells: brain of C57/BL/6 mouse inoculated in the striatum with recombinant (E. coli) mouse α-synuclein fibrils; sections or living animal
Description: First, mouse α-synuclein was expressed in and extracted from E. coli as a recombinant protein, and then incubated in vitro to form insoluble α-synuclein aggregates. The α-synuclein aggregates were then inoculated into the striatum of a mouse. […] Note that the inoculation of the α-synuclein aggregates into the striatum of the mouse was carried out in the following manner. First, hair on the head of a 9-week-old C57/BL/6 male mouse which had been anesthetized with 1.5% (v/v) isoflurane was removed, and the scalp was disinfected with isodine, followed by application of xylocaine and incision in the scalp to expose the skull. Then, a hole was drilled in the skull at a position of 0.05 mm posterior to the bregma and 2 mm lateral to the midline, and 3 μl of an α-synuclein fibril solution (mouse α-synuclein fibril (4 mg/ml) in saline) was injected into a position […] ventral to the brain surface with use of a glass pipette. The scalp was then returned and sutured.
A model mouse was anesthetized with 1.5% (v/v) isoflurane 6 or more weeks after inoculation of an α-synuclein fibril solution. Then, a cranial window was placed on the model mouse in accordance with the Seylaz-Tomita method (Tomita et al. J Cereb Blood Flow Metab 25, 858-67, 2005). Two or more weeks after the placement of the cranial window, the mouse was anesthetized with 1.5% (v/v) isoflurane, and then 50 μl of a DMSO solution containing 0.1% BF-227, PBB3, SPAL-T-05, or SPAL-T-06 was intraperitoneally administered to the mouse. Thirty minutes after the administration, the mouse was fixed under a two-photon laser fluorescence microscope, 100 μl of physiological saline containing 5 mM Sulforhodamine 101 was intraperitoneally administered to the mouse, and then intravital two-photon fluorescence imaging was carried out at an excitation wavelength of 900 nm. Detection wavelengths for BF-227, PBB3, SPAL-T-05, and SPAL-T-06 were set at 500 nm to 550 nm, and a detection wavelength for Sulforhodamine 101 was set at 573 nm to 648 nm. In FIG. 4, each arrowhead indicates a blood vessel, and each arrow indicates fluorescence from the compound binding to an α-synuclein lesion.

α-synuclein aggregates [2] = target: T2, α-synuclein aggregates (Homo sapiens, UniProt P37840); assay: In vitro fluorescence microscope measurement, amygdala sections of DLB patient brain; parameters: α-synuclein aggregates formed in the brain of the DLB patient; from tissue; host or cells: post-mortem human brain: amygdala of DLB patient (sections or homogenate); cerebellum of MSA patient; conditions: 30 μM test compound
Description: as §1
Postfixed fresh frozen sections of amygdala tissue obtained from the brain of the DLB patient and deparaffinized sections of formalin-fixed paraffin-embedded middle frontal gyrus tissue obtained from the brain of the AD patient were used. Each brain section and a 30 μM test compound were incubated in a 50% ethanol solution at room temperature for 30 minutes. Thereafter, the section was washed with a 50% ethanol solution for 5 minutes and with ultrapure water for 3 minutes. This washing was carried out twice. After the section was mounted in a mounting medium (VECTASHIELD H-1000, Vector Laboratories), an image of a lesion-enriched area on the section was obtained with use of a fluorescence microscope (DM4000, Leica, excitation wavelength: 391 nm to 437 nm). In FIG. 1, each arrowhead indicates fluorescence from the compound binding to α-synuclein aggregates in the brain of the DLB patient, each arrow indicates fluorescence from the compound binding to amyloid-β aggregates in the brain of the AD patient, and an asterisk indicates fluorescence from the compound binding to tau aggregates in the brain of the AD patient. The fluorescence intensities of lesion-enriched areas and lesion-free areas (background) were quantified with use of analysis software (Image J). Note that SPAL-T-05 and SPAL-T-06 were each used as the test compound. Note also that BF-227 (2-(2-[2-dimethylaminothiazol-5-yl]ethenyl)-6-(2-[fluoro]ethoxy)benzoxazole (catalog No.: NP039-0)) and PBB3 (2-((1E,3E)-4-(6-(methylamino)pyridin-3-yl)buta-1,3-dienyl)benzo[d]thiazol-6-ol) (catalog No.: NP039-0), each available from NARD INSTITUTE, LTD., were each used as a control compound.

α-synuclein aggregates [3] = target: T2, α-synuclein aggregates; conditions: background statement, cited from earlier work

SMILES | binding to aggregates in the brain of the AD patient (fluorescence) [1] | detection of / binding to α-synuclein lesions in living mouse brain (two-photon fluorescence) (α-synuclein lesion) | binding to α-synuclein aggregates formed in the brain of the DLB patient (fluorescence) (α-synuclein aggregates [2]; 50% ethanol, room temperature, 30 minutes, amygdala sections) | binding selectivity: α-synuclein aggregates (DLB brain) versus tau aggregates or amyloid-β aggregates (AD brain) (α-synuclein aggregates [2]; fluorescence of lesion-enriched vs lesion-free areas) | binding selectivity with respect to the α-synuclein aggregates (α-synuclein aggregates [3]; binds to amyloid-β aggregates) | binding affinity with respect to the α-synuclein aggregates (α-synuclein aggregates [3])
CN(C)c1ncc(C=Cc2nc3ccc(OCCF)cc3o2)s1 [BF-227, 2-(2-[2-dimethylaminothiazol-5-yl]ethenyl)-6-(2-[fluoro]ethoxy)benzoxazole, reference compound] | mainly bound to the amyloid-β aggregates | no α-synuclein lesion was detected | weaker than that of each of SPAL-T-06 and SPAL-T-05 | low binding selectivity |  | 
CNc1ccc(/C=C/C=C/c2nc3ccc(O)cc3s2)cn1 [PBB3, 2-((1E,3E)-4-(6-(methylamino)pyridin-3-yl)buta-1,3-dienyl)benzo[d]thiazol-6-ol, reference compound] |  | no α-synuclein lesion was detected |  |  |  | 
CN(C)c1ncc(C=Cc2nc3ccc(OCCF)cc3o2)s1 [[^11C]BF-227] |  |  |  |  | low binding selectivity | insufficient binding affinity
